Read-outs that look alike come from different tables or passages of the source.
How the values were obtained:
progesterone receptor [1] = target: T1, progesterone receptor (Homo sapiens, UniProt P06401); test: PR transactivation assay, antagonistic activity (PR luciferase reporter); assay type: cell-based
T1 sequence (P06401 165-933 limits assumed): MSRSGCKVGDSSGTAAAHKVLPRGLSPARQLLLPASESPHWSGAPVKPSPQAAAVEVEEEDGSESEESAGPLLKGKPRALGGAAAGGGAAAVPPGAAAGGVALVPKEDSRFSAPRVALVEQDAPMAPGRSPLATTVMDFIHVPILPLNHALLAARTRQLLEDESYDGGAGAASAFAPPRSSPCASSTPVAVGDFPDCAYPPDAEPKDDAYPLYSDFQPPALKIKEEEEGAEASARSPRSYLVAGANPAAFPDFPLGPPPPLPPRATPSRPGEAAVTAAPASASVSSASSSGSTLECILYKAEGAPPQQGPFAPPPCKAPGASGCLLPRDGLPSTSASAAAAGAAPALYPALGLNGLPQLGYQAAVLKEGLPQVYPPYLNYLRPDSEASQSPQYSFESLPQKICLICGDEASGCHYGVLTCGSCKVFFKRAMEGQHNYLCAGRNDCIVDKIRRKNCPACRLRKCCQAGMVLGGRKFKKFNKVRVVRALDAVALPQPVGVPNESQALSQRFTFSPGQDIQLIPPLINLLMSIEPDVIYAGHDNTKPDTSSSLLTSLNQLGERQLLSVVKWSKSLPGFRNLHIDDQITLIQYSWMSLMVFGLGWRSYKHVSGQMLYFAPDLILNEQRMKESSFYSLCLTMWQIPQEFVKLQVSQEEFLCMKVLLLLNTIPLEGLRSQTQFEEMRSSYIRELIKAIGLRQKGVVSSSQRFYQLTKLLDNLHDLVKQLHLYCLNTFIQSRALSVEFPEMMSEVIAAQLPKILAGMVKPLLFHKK
Procedure: (§1) Transactivation Assay for Progesterone Agonist and Antagonistic Activity (See Table 1).
(§2) Experimental: PR transactivation studies was carried out in human breast cancer (T47D) cells, grown in RPMI medium without phenol red and 5% charcoal stripped fetal bovine serum, transiently transfected with PR luciferase reporter (CCS-6043L signal reporter assay kit, Qiagen). The cells were stimulated R5020 as PR agonist and treated in the presence or absence of the tested compounds for 24 hours.

guinea pig [2] = details: in vivo; cited from earlier work
[3] = system: ovariectomized C57BL/6 mice; test: Uterine weight bioassay in ovariectomized mice; assay type: in vivo, mouse; details: combined with E2, 4 weeks
Procedure: (§3) In order to determine the in vivo estrogenic action of EC313 in uterine weight and benign breast development, we have used standard uterine weight bioassay and mammary gland whole mount analysis in ovariectomized mice. […] Five different measurements were obtained from each whole-mount image. Ductal length (millimeters) was measured by drawing and measuring a straight line caliper from the most distal point of the ductal network to the nipple and end buds were identified as large bulbous profiles located at the termini of ducts. […] The reduced estrogenic effect by the treatment of EC313 was further confirmed by the gene expression studies.
(§4) Whole mounts of mammary glands of overictomized C57BL/6 mice treated with E2, EC313 0.1 and 1.0 mg/kg. Magnification—upper panel—10×, lower panel—20×. B, Uterine weight of mice treated for 4 weeks with E2, EC313 0.1 and 1.0 mg/kg. Data represented are average uterine weight in milligrams±SD (*P<0.001 vs E2-control). C-D, Total duct length and terminal end bud counts in the mammary gland whole mounts after 4 weeks of the treatment with test compounds (*P<0.001 vs E2-control).

progesterone receptor [4] = target: T2, progesterone receptor (Homo sapiens, UniProt P06401); test: PR transactivation assay, agonistic activity (PR luciferase reporter); assay type: cell-based; details: T47D cells
T2 sequence (P06401 679-933 limits assumed): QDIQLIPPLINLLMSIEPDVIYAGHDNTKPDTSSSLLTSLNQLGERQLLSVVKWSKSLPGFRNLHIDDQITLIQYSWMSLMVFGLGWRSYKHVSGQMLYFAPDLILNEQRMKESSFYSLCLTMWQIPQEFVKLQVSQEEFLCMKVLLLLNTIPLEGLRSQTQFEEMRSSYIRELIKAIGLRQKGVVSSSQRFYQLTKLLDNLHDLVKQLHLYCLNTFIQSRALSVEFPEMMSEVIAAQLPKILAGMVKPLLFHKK
Procedure: as §1
as §2, with “hours. The effect was calculated using dual luciferase assay kit (Promega, WI)) based on RU486 as full antagonist and R5020 as agonist for progesterone receptor.” for “hours.”

[5] = system: estradiol-primed immature female rabbits; test: McPhail and anti-McPhail tests in rabbits; assay type: in vivo, rabbit
Excerpt: The McPhail test in the immature female rabbit is a well-established model to test progestatational and antiprogestational activity [McPhail 1934).

[6] = system: ovariectomized C57BL/6 mice; test: Gene expression in mammary glands of ovariectomized mice; assay type: in vivo, mouse
Procedure: as §3
Gene expression in mammary glands of ovariectomized C57BL/6 mice treated with E2, EC313 0.1 and 1.0 mg/kg. Columns are average of relative amount (ΔΔCt) of tested mRNA±SD (n=6) (**P<0.01 vs E2-control, *P<0.001 vs E2-control).

[7] = system: ovariectomized C57BL/6 mice; test: Mammary gland whole mount analysis in ovariectomized mice; assay type: in vivo, mouse; details: 0.1 and 1.0 mg/kg with E2, 4 weeks
Procedure: as §3, §4

guinea pig [8] = test: Guinea pig model (ovulation inhibition, uterine weight, vagina, ovary, classification); assay type: in vivo

C[C@]12C[C@H](c3ccc(-c4ccoc4)cc3)C3=C4CCC(=O)C=C4CCC3C1CCC21OCCC1=C(F)F (some centres unmarked) [EC-313]
Ratio of IC50's (progesterone receptor [1]; PR agonism / PR antagonism): 9.4
Antagonist rel to RU486 (%) (progesterone receptor [1]; T47D cells, stimulant R5020): 240%
IC50 (progesterone receptor [1]; T47D cells, stimulant R5020, read-out: IC50 Average of 2 expts): 0.5 nM
IC50 (progesterone receptor [1]; Table 2 summary, read-out: PR antagonism (IC50)): 0.5 nM
Classification (previous findings, Nickisch et al, 2013) (guinea pig [2]): mesoprogestin
E2 stimulated uterine weight ([3]; 0.1 mg/kg): reduced by two fold
E2 stimulated uterine weight ([3]; 1.0 mg/kg): three fold
Agonist rel to R5020 (%) (progesterone receptor [4]): 7.8%
EC50 (progesterone receptor [4]; stimulant R5020, read-out: EC50): 4.75 nM
progestational activity (McPhail test) ([5]; estradiol-primed immature female rabbit): active both as a progestin agonist and antagonist
antiprogestational activity (anti-McPhail test) ([5]; immature female rabbit): active both as a progestin agonist and antagonist
PR regulated genes amphiregulin (AREG) and RANKL in mammary glands ([6]; higher dose): significantly inhibited
PR regulated genes amphiregulin (AREG) and RANKL in mammary glands ([6]; lower doses): upregulated in a moderate fashion
E2 regulated genes cyclin D1 and PS2 in mammary glands ([6]; treatment combined with E2): downregulated
ductal branching and terminal end buds in whole mount analysis [7]: dose dependently reduced
ER-/PR balance vagina.: dose at which the dominance is seen (guinea pig [8]; guinea pig): ≧0.1 mg
Classification (guinea pig [8]; guinea pig model): mesoprogestin
Uterine Weight at max. dose (10.mg/day s.c.) (guinea pig [8]; guinea pig, 10 mg/day s.c.): 1.13
ER-/PR balance vagina. (guinea pig [8]; guinea pig, at max. dose (10.mg/day s.c.)): PR-domin.
Ovary (CL) (guinea pig [8]; guinea pig, at max. dose (10.mg/day s.c.), CL = corpora lutea): degenerated

Reference: patent US9850273B2, “Combination of estrogens plus antiprogestins with significant partial agonistic effect as an effective treatment of menopausal symptoms and for prevention of the occurrence of breast cancer” (Evestra, Inc., priority 2014, dated 2017)
